Patent US8445492B2, “Method for inhibiting growth of cancer cells and cell telomere and diseases of cell proliferation by using heteroannelated anthraquinone derivative compounds” (National Defense Medical Center, priority 2008, dated 2013)

Tests used:
Type in all cases: cell-based
OVCAR-3 = experiment: NCI DTP in-vitro dose response, Ovarian Cancer; conditions: for GI50: read-out: GI50
OVCAR-4 = experiment: NCI DTP in-vitro dose response, Ovarian Cancer; conditions: for GI50: read-out: GI50
OVCAR-5 = experiment: NCI DTP in-vitro dose response, Ovarian Cancer; conditions: for GI50: read-out: GI50
OVCAR-8 = experiment: NCI DTP in-vitro dose response, Ovarian Cancer; conditions: for GI50: read-out: GI50
SK-OV-3 = experiment: NCI DTP in-vitro dose response, Ovarian Cancer; conditions: for GI50: read-out: GI50
IGROV1 = experiment: NCI DTP in-vitro dose response, Ovarian Cancer
MDA-MB-435 = experiment: NCI DTP in-vitro dose response, Breast Cancer
T-47D = experiment: NCI DTP in-vitro dose response, Breast Cancer
BT-549 = experiment: NCI DTP in-vitro dose response, Breast Cancer
HS 578T = experiment: NCI DTP in-vitro dose response, Breast Cancer
MDA-MB-468 = experiment: NCI DTP in-vitro dose response, Breast Cancer
NCI/ADR-RES = experiment: NCI DTP in-vitro dose response, Breast Cancer
MDA-MB-231/ATCC = experiment: NCI DTP in-vitro dose response, Breast Cancer
MCF7 = experiment: NCI DTP in-vitro dose response, Breast Cancer

With CCc1nc2ccc3c(c2[nH]1)C(=O)c1ccccc1C3=O [TABLE 4-6] the CC50 (OVCAR-3) was over 100 µM, the TGI (OVCAR-3) was over 1.00E−4 and the “Percent Growth” value (OVCAR-3; Log10 Concentration −4.0) was 8%. The “Percent Growth” value (OVCAR-3; Log10 Concentration −5.0) was 57%, the “Percent Growth” value (OVCAR-3; Log10 Concentration −6.0) was 93% and the “Percent Growth” value (OVCAR-3; Log10 Concentration −7.0) was 106%. The “Percent Growth” value (OVCAR-3; Log10 Concentration −8.0) was 100%, the GI50 (OVCAR-3) was 14.1 µM and the CC50 (OVCAR-4) was over 100 µM. For the same compound, the TGI (OVCAR-4) was over 1.00E−4, the “Percent Growth” value (OVCAR-4; Log10 Concentration −4.0) was 15% and the “Percent Growth” value (OVCAR-4; Log10 Concentration −5.0) was 37%. The “Percent Growth” value (OVCAR-4; Log10 Concentration −6.0) was 83%, the “Percent Growth” value (OVCAR-4; Log10 Concentration −7.0) was 96% and the “Percent Growth” value (OVCAR-4; Log10 Concentration −8.0) was 98%. The GI50 (OVCAR-4) was 5.18 µM, the CC50 (OVCAR-5) was over 100 µM and the TGI (OVCAR-5) was over 1.00E−4. For the same compound, the “Percent Growth” value (OVCAR-5; Log10 Concentration −4.0) was 45%, the “Percent Growth” value (OVCAR-5; Log10 Concentration −5.0) was 85% and the “Percent Growth” value (OVCAR-5; Log10 Concentration −6.0) was 94%. The “Percent Growth” value (OVCAR-5; Log10 Concentration −7.0) was 91%, the “Percent Growth” value (OVCAR-5; Log10 Concentration −8.0) was 88% and the GI50 (OVCAR-5) was 75.7 µM. The CC50 (OVCAR-8) was over 100 µM, the TGI (OVCAR-8) was over 1.00E−4 and the “Percent Growth” value (OVCAR-8; Log10 Concentration −4.0) was 24%. The “Percent Growth” value (OVCAR-8; Log10 Concentration −5.0) was 58%, the “Percent Growth” value (OVCAR-8; Log10 Concentration −6.0) was 92% and the “Percent Growth” value (OVCAR-8; Log10 Concentration −7.0) was 91%. For the same compound, the “Percent Growth” value (OVCAR-8; Log10 Concentration −8.0) was 96%, the GI50 (OVCAR-8) was 17.7 µM and the CC50 (SK-OV-3) was over 100 µM. The TGI (SK-OV-3) was over 1.00E−4, the “Percent Growth” value (SK-OV-3; Log10 Concentration −4.0) was 14% and the “Percent Growth” value (SK-OV-3; Log10 Concentration −5.0) was 12%. The “Percent Growth” value (SK-OV-3; Log10 Concentration −6.0) was 76%, the “Percent Growth” value (SK-OV-3; Log10 Concentration −7.0) was 92% and the “Percent Growth” value (SK-OV-3; Log10 Concentration −8.0) was 95%. For the same compound, the GI50 (SK-OV-3) was 2.55 µM, the CC50 (IGROV1) was over 100 µM and the GI50 (IGROV1) was 1.34 µM. The TGI (IGROV1) was 1.69E−5, the “Percent Growth” value (IGROV1; Log10 Concentration −4.0) was −19% and the “Percent Growth” value (IGROV1; Log10 Concentration −5.0) was 6%. The “Percent Growth” value (IGROV1; Log10 Concentration −6.0) was 56%, the “Percent Growth” value (IGROV1; Log10 Concentration −7.0) was 88% and the “Percent Growth” value (IGROV1; Log10 Concentration −8.0) was 89%.

In the case of O=C1c2ccccc2C(=O)c2c1ccc1nccnc21 [TABLE 5-6], the CC50 (OVCAR-3) is reported as over 100 µM, the TGI (OVCAR-3) is reported as 1.25E−5 and the “Percent Growth” value (OVCAR-3; Log10 Concentration −4.0) is reported as −42%. The “Percent Growth” value (OVCAR-3; Log10 Concentration −5.0) was 4%, the “Percent Growth” value (OVCAR-3; Log10 Concentration −6.0) was 77% and the “Percent Growth” value (OVCAR-3; Log10 Concentration −7.0) was 95%. For the same compound, the “Percent Growth” value (OVCAR-3; Log10 Concentration −8.0) was 104%, the GI50 (OVCAR-3) was 2.34 µM and the CC50 (OVCAR-4) was over 100 µM. For the same compound, the TGI (OVCAR-4) was over 1.00E−4, the “Percent Growth” value (OVCAR-4; Log10 Concentration −4.0) was 3% and the “Percent Growth” value (OVCAR-4; Log10 Concentration −5.0) was 51%. For the same compound, the “Percent Growth” value (OVCAR-4; Log10 Concentration −6.0) was 74%, the “Percent Growth” value (OVCAR-4; Log10 Concentration −7.0) was 91% and the “Percent Growth” value (OVCAR-4; Log10 Concentration −8.0) was 102%. The GI50 (OVCAR-4) was 10.5 µM, the CC50 (OVCAR-5) was over 100 µM and the TGI (OVCAR-5) was over 1.00E−4. The “Percent Growth” value (OVCAR-5; Log10 Concentration −4.0) was 19%, the “Percent Growth” value (OVCAR-5; Log10 Concentration −5.0) was 77% and the “Percent Growth” value (OVCAR-5; Log10 Concentration −6.0) was 98%. The “Percent Growth” value (OVCAR-5; Log10 Concentration −7.0) was 90%, the “Percent Growth” value (OVCAR-5; Log10 Concentration −8.0) was 97% and the GI50 (OVCAR-5) was 59.3 µM. The CC50 (OVCAR-8) was over 100 µM, the TGI (OVCAR-8) was over 1.00E−4 and the “Percent Growth” value (OVCAR-8; Log10 Concentration −4.0) was 13%. For the same compound, the “Percent Growth” value (OVCAR-8; Log10 Concentration −5.0) was 36%, the “Percent Growth” value (OVCAR-8; Log10 Concentration −6.0) was 83% and the “Percent Growth” value (OVCAR-8; Log10 Concentration −7.0) was 89%. The “Percent Growth” value (OVCAR-8; Log10 Concentration −8.0) was 97%, the GI50 (OVCAR-8) was 5.07 µM and the CC50 (SK-OV-3) was over 100 µM. The TGI (SK-OV-3) was over 1.00E−4, the “Percent Growth” value (SK-OV-3; Log10 Concentration −4.0) was 8% and the “Percent Growth” value (SK-OV-3; Log10 Concentration −5.0) was 44%. For the same compound, the “Percent Growth” value (SK-OV-3; Log10 Concentration −6.0) was 79%, the “Percent Growth” value (SK-OV-3; Log10 Concentration −7.0) was 89% and the “Percent Growth” value (SK-OV-3; Log10 Concentration −8.0) was 91%. The GI50 (SK-OV-3) was 6.95 µM, the CC50 (IGROV1) was over 100 µM and the GI50 (IGROV1) was 2.55 µM. The TGI (IGROV1) was 3.59E−5, the “Percent Growth” value (IGROV1; Log10 Concentration −4.0) was −27% and the “Percent Growth” value (IGROV1; Log10 Concentration −5.0) was 33%. For the same compound, the “Percent Growth” value (IGROV1; Log10 Concentration −6.0) was 61%, the “Percent Growth” value (IGROV1; Log10 Concentration −7.0) was 74% and the “Percent Growth” value (IGROV1; Log10 Concentration −8.0) was 90%.

CCc1nc2ccc3c(c2[nH]1)C(=O)c1ccccc1C3=O [TABLE 4-9] was tested, and the CC50 (MDA-MB-435) was over 100 µM, the TGI (MDA-MB-435) was over 1.00E−4 and the “Percent Growth” value (MDA-MB-435; Log10 Concentration −4.0) was 37%. The “Percent Growth” value (MDA-MB-435; Log10 Concentration −5.0) was 66%, the “Percent Growth” value (MDA-MB-435; Log10 Concentration −6.0) was 92% and the “Percent Growth” value (MDA-MB-435; Log10 Concentration −7.0) was 91%. The “Percent Growth” value (MDA-MB-435; Log10 Concentration −8.0) was 97%, the GI50 (MDA-MB-435; read-out: GI50) was 36.5 µM and the CC50 (T-47D) was over 100 µM. The TGI (T-47D) was over 1.00E−4, the “Percent Growth” value (T-47D; Log10 Concentration −4.0) was 10% and the “Percent Growth” value (T-47D; Log10 Concentration −5.0) was 32%. The “Percent Growth” value (T-47D; Log10 Concentration −6.0) was 78%, the “Percent Growth” value (T-47D; Log10 Concentration −7.0) was 94% and the “Percent Growth” value (T-47D; Log10 Concentration −8.0) was 105%. For the same compound, the GI50 (T-47D; read-out: GI50) was 4 µM, the CC50 (BT-549) was over 100 µM and the TGI (BT-549) was over 1.00E−4. The “Percent Growth” value (BT-549; Log10 Concentration −4.0) was 15%, the “Percent Growth” value (BT-549; Log10 Concentration −5.0) was 60% and the “Percent Growth” value (BT-549; Log10 Concentration −6.0) was 95%. For the same compound, the “Percent Growth” value (BT-549; Log10 Concentration −7.0) was 100%, the “Percent Growth” value (BT-549; Log10 Concentration −8.0) was 101% and the GI50 (BT-549; read-out: GI50) was 16.7 µM. For the same compound, the CC50 (HS 578T) was over 100 µM, the TGI (HS 578T) was 2.67E−5 and the “Percent Growth” value (HS 578T; Log10 Concentration −4.0) was −32%. For the same compound, the “Percent Growth” value (HS 578T; Log10 Concentration −5.0) was 24%, the “Percent Growth” value (HS 578T; Log10 Concentration −6.0) was 56% and the “Percent Growth” value (HS 578T; Log10 Concentration −7.0) was 108%. The “Percent Growth” value (HS 578T; Log10 Concentration −8.0) was 107%, the GI50 (HS 578T; read-out: GI50) was 1.56 µM and the CC50 (MDA-MB-468) was over 100 µM. For the same compound, the TGI (MDA-MB-468) was 6.33E−5, the “Percent Growth” value (MDA-MB-468; Log10 Concentration −4.0) was −7% and the “Percent Growth” value (MDA-MB-468; Log10 Concentration −5.0) was 29%. The “Percent Growth” value (MDA-MB-468; Log10 Concentration −6.0) was 79%, the “Percent Growth” value (MDA-MB-468; Log10 Concentration −7.0) was 89% and the “Percent Growth” value (MDA-MB-468; Log10 Concentration −8.0) was 83%. The GI50 (MDA-MB-468; read-out: GI50) was 3.83 µM, the CC50 (NCI/ADR-RES) was over 100 µM and the TGI (NCI/ADR-RES) was over 1.00E−4. For the same compound, the “Percent Growth” value (NCI/ADR-RES; Log10 Concentration −4.0) was 6%, the “Percent Growth” value (NCI/ADR-RES; Log10 Concentration −5.0) was 51% and the “Percent Growth” value (NCI/ADR-RES; Log10 Concentration −6.0) was 89%. For the same compound, the “Percent Growth” value (NCI/ADR-RES; Log10 Concentration −7.0) was 99%, the “Percent Growth” value (NCI/ADR-RES; Log10 Concentration −8.0) was 95% and the GI50 (NCI/ADR-RES; read-out: GI50) was 10.5 µM. For the same compound, the CC50 (MDA-MB-231/ATCC) was over 100 µM, the TGI (MDA-MB-231/ATCC) was over 1.00E−4 and the “Percent Growth” value (MDA-MB-231/ATCC; Log10 Concentration −4.0) was 36%. The “Percent Growth” value (MDA-MB-231/ATCC; Log10 Concentration −5.0) was 54%, the “Percent Growth” value (MDA-MB-231/ATCC; Log10 Concentration −6.0) was 90% and the “Percent Growth” value (MDA-MB-231/ATCC; Log10 Concentration −7.0) was 95%. For the same compound, the “Percent Growth” value (MDA-MB-231/ATCC; Log10 Concentration −8.0) was 98%, the GI50 (MDA-MB-231/ATCC; read-out: GI50) was 16.6 µM and the CC50 (MCF7) was over 100 µM. The TGI (MCF7) was 8.14E−5, the “Percent Growth” value (MCF7; Log10 Concentration −4.0) was −4% and the “Percent Growth” value (MCF7; Log10 Concentration −5.0) was 37%. The “Percent Growth” value (MCF7; Log10 Concentration −6.0) was 54%, the “Percent Growth” value (MCF7; Log10 Concentration −7.0) was 76% and the “Percent Growth” value (MCF7; Log10 Concentration −8.0) was 85%. For the same compound, the GI50 (MCF7; read-out: GI50) was 1.68 µM.
